In PubChem BioAssay AID284 (DTP/NCI, 2004):
“And” between values parts separate entries of the source, which are not always exact repeats. Equal entries are not always repeated. Inconclusive results and toxic doses are left out.

Tested on: BDF1 mice, L1210/MTX-resistant leukemia ip, survival T/C
Assay: NCI In Vivo Anticancer Drug Screen. Data for tumor model L1210 Leukemia resistant to Methotrexate; NSC 740 (intraperitoneal) in B6D2F1 (BDF1) mice
Settings: endpoint: mean survival time, higher = longer survival
Description: The antitumor activity of compounds was measured in mice bearing transplantable tumors. Survival or tumor size were measured and the results are expressed as the measurement made in the treated group (T) divided by the measurement made in the vehicle treated control group (C). The tumor model used in this assay is L1210 Leukemia resistant to Methotrexate; NSC 740 (intraperitoneal) in B6D2F1 (BDF1) mice

[1] = dose: 10.0 mg/kg/injection, schedule: Q01DX Z (ip), vehicle: saline
[2] = dose: 20.0 mg/kg/injection, schedule: Q01DX Z (ip), vehicle: saline
[3] = dose: 40.0 mg/kg/injection, schedule: Q01DX Z (ip), vehicle: saline
[4] = dose: 7.5 mg/kg/injection, schedule: Q01DX Z (ip), vehicle: carboxymethylcellulose (CMC)

Question: How did the T/C (dose: 7.5 mg/kg/injection, schedule: Q01DX Z (ip), vehicle: saline) turn out when `CS(=O)(=O)OCCCl` was run?
Answer: 107 % of control

Question: And the T/C [1]?
Answer: 111 % of control

Question: What about the T/C (dose: 15.0 mg/kg/injection, schedule: Q01DX Z (ip), vehicle: saline) of the same compound?
Answer: 109 % of control

Question: And the T/C [2]?
Answer: 111 % of control

Question: What about the T/C (dose: 50.0 mg/kg/injection, schedule: Q01DX Z (ip), vehicle: saline) of the same compound?
Answer: 86 % of control

Question: `CCCNc1ncnc2[nH]ncc12` was tested. Which T/C (dose: 3.13 mg/kg/injection, schedule: Q01DX010 (ip), vehicle: saline) did it give?
Answer: 90 % of control and 91 % of control

Question: What about the T/C (dose: 6.25 mg/kg/injection, schedule: Q01DX010 (ip), vehicle: saline) of the same compound?
Answer: 100 % of control and 102 % of control

Question: And the T/C (dose: 12.5 mg/kg/injection, schedule: Q01DX010 (ip), vehicle: saline)?
Answer: 86 % of control and 97 % of control

Question: How did the T/C (dose: 0.05 mg/kg/injection, schedule: Q01DX010 (ip), vehicle: other) turn out when `Nc1nc(N)c2nc(CNc3ccc(C(=O)NC(CCC(=O)O)C(=O)O)cc3)cnc2n1` (stereo not drawn) was run?
Answer: 90 % of control

Question: What about the T/C (dose: 0.1 mg/kg/injection, schedule: Q01DX010 (ip), vehicle: other) of the same compound?
Answer: 102 % of control and 103 % of control

Question: What about the T/C (dose: 0.2 mg/kg/injection, schedule: Q01DX010 (ip), vehicle: other) of the same compound?
Answer: 92 % of control and 104 % of control

Question: What about the T/C (dose: 0.4 mg/kg/injection, schedule: Q01DX010 (ip), vehicle: other) of the same compound?
Answer: 89 % of control

Question: `COS(C)(=O)=O` was tested. Which T/C (dose: 5.0 mg/kg/injection, schedule: Q01DX Z (ip), vehicle: saline) did it give?
Answer: 105 % of control

Question: What about the T/C [1] of the same compound?
Answer: 103 % of control

Question: What about the T/C [2] of the same compound?
Answer: 103 % of control

Question: What about the T/C [3] of the same compound?
Answer: 97 % of control

Question: For `O[C@H](CN1CC1)[C@@H](O)CN1CC1`, which T/C (dose: 0.01 mg/kg/injection, schedule: Q01DX Z (ip), vehicle: saline) is on record?
Answer: 99 % of control

Question: And the T/C (dose: 0.02 mg/kg/injection, schedule: Q01DX Z (ip), vehicle: saline)?
Answer: 105 % of control

Question: And the T/C (dose: 0.37 mg/kg/injection, schedule: Q01DX Z (ip), vehicle: saline)?
Answer: 151 % of control

Question: Which results are given for `c1ccc(CNc2ncnc3[nH]ncc23)cc1`?
Answer: T/C (dose: 8.0 mg/kg/injection, schedule: Q01DX010 (ip), vehicle: saline): 94 % of control and 103 % of control; T/C (dose: 16.0 mg/kg/injection, schedule: Q01DX010 (ip), vehicle: saline): 96 % of control and 100 % of control; T/C (dose: 32.0 mg/kg/injection, schedule: Q01DX010 (ip), vehicle: saline): 91 % of control

Question: With `NC(Cc1ccc(N(CCCl)CCCl)cc1)C(=O)O` (stereo not drawn) as the compound, how does the T/C (dose: 0.5 mg/kg/injection, schedule: Q01DX Z (ip), vehicle: carboxymethylcellulose (CMC)) read?
Answer: 112 % of control

Question: What about the T/C (dose: 1.0 mg/kg/injection, schedule: Q01DX Z (ip), vehicle: carboxymethylcellulose (CMC)) of the same compound?
Answer: 123 % of control

Question: What about the T/C (dose: 2.0 mg/kg/injection, schedule: Q01DX010 (ip), vehicle: other) of the same compound?
Answer: 156 % of control

Question: And the T/C (dose: 2.0 mg/kg/injection, schedule: Q01DX Z (ip), vehicle: carboxymethylcellulose (CMC))?
Answer: 102 % of control

Question: What about the T/C (dose: 4.0 mg/kg/injection, schedule: Q01DX010 (ip), vehicle: other) of the same compound?
Answer: 98 % of control

Question: What about the T/C (dose: 4.0 mg/kg/injection, schedule: Q01DX Z (ip), vehicle: carboxymethylcellulose (CMC)) of the same compound?
Answer: 90 % of control

Question: And the T/C (dose: 5.0 mg/kg/injection, schedule: Q01DX Z (ip), vehicle: carboxymethylcellulose (CMC))?
Answer: 107 % of control

Question: And the T/C [4]?
Answer: 86 % of control

Question: What about the T/C (dose: 8.0 mg/kg/injection, schedule: Q01DX010 (ip), vehicle: other) of the same compound?
Answer: 91 % of control

Question: And the T/C (dose: 10.0 mg/kg/injection, schedule: Q01DX Z (ip), vehicle: carboxymethylcellulose (CMC))?
Answer: 93 % of control

Question: How did the T/C (dose: 1.0 mg/kg/injection, schedule: Q01DX010 (ip), vehicle: saline) turn out when `CCN(CC)c1ccc2cc3ccc(=[N+](CC)CC)cc-3oc2c1` was run?
Answer: 100 % of control

Question: And the T/C (dose: 2.0 mg/kg/injection, schedule: Q01DX010 (ip), vehicle: saline)?
Answer: 91 % of control

Question: And the T/C (dose: 4.0 mg/kg/injection, schedule: Q01DX010 (ip), vehicle: saline)?
Answer: 98 % of control

Question: For `N=[N+]=CC(=O)OCC(N)C(=O)O` (stereo not drawn), which T/C (dose: 1.25 mg/kg/injection, schedule: Q01DX Z (ip), vehicle: saline) is on record?
Answer: 116 % of control and 121 % of control

Question: And the T/C (dose: 2.5 mg/kg/injection, schedule: Q01DX Z (ip), vehicle: saline)?
Answer: 112 % of control

Question: And the T/C [1]?
Answer: 117 % of control and 104 % of control

Question: And the T/C [3]?
Answer: 101 % of control

Question: And the T/C (dose: 80.0 mg/kg/injection, schedule: Q01DX Z (ip), vehicle: saline)?
Answer: 93 % of control

Question: `C[C@]12C=CC(=O)C=C1CC[C@@H]1[C@@H]2C(=O)C[C@@]2(C)[C@H]1CC[C@]2(O)C(=O)CO` was tested. Which T/C (dose: 25.0 mg/kg/injection, schedule: Q01DX010 (sc), vehicle: steriod suspending solution) did it give?
Answer: 90 % of control

Question: For `C1CN1c1nc(N2CC2)nc(N2CC2)n1`, which T/C (dose: 2.0 mg/kg/injection, schedule: Q01DX Z (ip), vehicle: saline) is on record?
Answer: 93 % of control

Question: What about the T/C (dose: 4.0 mg/kg/injection, schedule: Q01DX Z (ip), vehicle: saline) of the same compound?
Answer: 93 % of control

Question: And the T/C (dose: 32.0 micrograms/kg/injection, schedule: Q01DX Z (ip), vehicle: saline)?
Answer: 90 % of control and 100 % of control

Question: What about the T/C (dose: 63.0 micrograms/kg/injection, schedule: Q01DX Z (ip), vehicle: saline) of the same compound?
Answer: 98 % of control

Question: And the T/C (dose: 125.0 micrograms/kg/injection, schedule: Q01DX Z (ip), vehicle: saline)?
Answer: 87 % of control

Question: What about the T/C (dose: 250.0 micrograms/kg/injection, schedule: Q01DX Z (ip), vehicle: saline) of the same compound?
Answer: 98 % of control

Question: For `CCCSc1ncnc2nc[nH]c12`, which T/C (dose: 0.5 mg/kg/injection, schedule: Q01DX Z (ip), vehicle: other) is on record?
Answer: 103 % of control

Question: And the T/C (dose: 2.0 mg/kg/injection, schedule: Q01DX Z (ip), vehicle: other)?
Answer: 93 % of control

Question: What about the T/C (dose: 4.0 mg/kg/injection, schedule: Q01DX Z (ip), vehicle: other) of the same compound?
Answer: 93 % of control

Question: What about the T/C (dose: 31.3 mg/kg/injection, schedule: Q01DX010 (ip), vehicle: saline) of the same compound?
Answer: 104 % of control

Question: And the T/C (dose: 62.5 mg/kg/injection, schedule: Q01DX010 (ip), vehicle: saline)?
Answer: 95 % of control

Question: And the T/C (dose: 87.5 mg/kg/injection, schedule: Q01DX Z (ip), vehicle: other)?
Answer: 100 % of control

Question: What about the T/C (dose: 125.0 mg/kg/injection, schedule: Q01DX010 (ip), vehicle: saline) of the same compound?
Answer: 90 % of control

Question: And the T/C (dose: 175.0 mg/kg/injection, schedule: Q01DX Z (ip), vehicle: other)?
Answer: 88 % of control

Question: What about the T/C (dose: 250.0 mg/kg/injection, schedule: Q01DX010 (ip), vehicle: saline) of the same compound?
Answer: 88 % of control

Question: For `CSc1ncnc2nc[nH]c12`, which T/C [4] is on record?
Answer: 93 % of control

Question: What about the T/C (dose: 15.0 mg/kg/injection, schedule: Q01DX Z (ip), vehicle: carboxymethylcellulose (CMC)) of the same compound?
Answer: 86 % of control

Question: What about the T/C (dose: 31.0 mg/kg/injection, schedule: Q01DX Z (ip), vehicle: carboxymethylcellulose (CMC)) of the same compound?
Answer: 122 % of control

Question: And the T/C (dose: 62.5 mg/kg/injection, schedule: Q01DX Z (ip), vehicle: carboxymethylcellulose (CMC))?
Answer: 112 % of control

Question: And the T/C (dose: 125.0 mg/kg/injection, schedule: Q01DX Z (ip), vehicle: carboxymethylcellulose (CMC))?
Answer: 107 % of control

Question: How did the T/C (dose: 1.2 mg/kg/injection, schedule: Q01DX Z (ip), vehicle: carboxymethylcellulose (CMC)) turn out when `S=c1nc[nH]c2nc[nH]c12` was run?
Answer: 118 % of control

Question: What about the T/C (dose: 2.4 mg/kg/injection, schedule: Q01DX Z (ip), vehicle: carboxymethylcellulose (CMC)) of the same compound?
Answer: 91 % of control

Question: And the T/C (dose: 3.0 mg/kg/injection, schedule: Q01DX Z (ip), vehicle: carboxymethylcellulose (CMC))?
Answer: 95 % of control

Question: What about the T/C (dose: 5.0 mg/kg/injection, schedule: Q01DX010 (ip), vehicle: alkali diluted with saline) of the same compound?
Answer: 100 % of control

Question: What about the T/C (dose: 5.0 mg/kg/injection, schedule: Q01DX Z (ip), vehicle: alkali diluted with saline) of the same compound?
Answer: 120 % of control and 91 % of control and 102 % of control

Question: And the T/C (dose: 6.0 mg/kg/injection, schedule: Q01DX Z (ip), vehicle: carboxymethylcellulose (CMC))?
Answer: 111 % of control

Question: And the T/C (dose: 9.0 mg/kg/injection, schedule: Q01DX Z (ip), vehicle: carboxymethylcellulose (CMC))?
Answer: 95 % of control

Question: What about the T/C (dose: 10.0 mg/kg/injection, schedule: Q01DX010 (ip), vehicle: alkali diluted with saline) of the same compound?
Answer: 99 % of control

Question: What about the T/C (dose: 10.0 mg/kg/injection, schedule: Q01DX Z (ip), vehicle: alkali diluted with saline) of the same compound?
Answer: 94 % of control and 110 % of control

Question: What about the T/C (dose: 12.0 mg/kg/injection, schedule: Q01DX Z (ip), vehicle: carboxymethylcellulose (CMC)) of the same compound?
Answer: 98 % of control

Question: What about the T/C (dose: 20.0 mg/kg/injection, schedule: Q01DX010 (ip), vehicle: alkali diluted with saline) of the same compound?
Answer: 101 % of control

Question: And the T/C (dose: 20.0 mg/kg/injection, schedule: Q01DX Z (ip), vehicle: alkali diluted with saline)?
Answer: 117 % of control and 91 % of control and 102 % of control

Question: And the T/C (dose: 25.0 mg/kg/injection, schedule: Q01DX Z (ip), vehicle: other)?
Answer: 93 % of control and 103 % of control

Question: And the T/C (dose: 36.0 mg/kg/injection, schedule: Q01DX Z (ip), vehicle: carboxymethylcellulose (CMC))?
Answer: 102 % of control

Question: And the T/C (dose: 40.0 mg/kg/injection, schedule: Q01DX010 (ip), vehicle: alkali diluted with saline)?
Answer: 104 % of control

Question: What about the T/C (dose: 80.0 mg/kg/injection, schedule: Q01DX010 (ip), vehicle: alkali diluted with saline) of the same compound?
Answer: 95 % of control

Question: And the T/C (dose: 100.0 mg/kg/injection, schedule: Q01DX Z (ip), vehicle: other)?
Answer: 123 % of control and 98 % of control
